Experiments:
caco-2 cells [1] = experiment: Evaluation Test 3: absorption of dyes in tubular-form culture substrates having different inner diameters; assay type: in vitro ADME; conditions: inner diameter 0.5, 1.0 and 2.0 mm; flow rate 0.05 mL/min, perfused for 3 minutes
Description: The inventors of the present application studied dynamic characteristics of a fluid and absorption of a drug into a culture substrate in a tubular form when a liquid such as a drug solution was caused to flow in the culture substrate. Specifically, a fluid containing a drug was caused to flow in a plurality of types of tubular-form culture substrates having different inner diameters, and the states of the culture substrates before and after the flow of the fluid were observed. In addition, dynamic characteristics of the fluid in the respective tubular-form culture substrates were obtained by calculation.
where Q is the flow rate of the liquid, μ is the viscosity of the liquid, ρ is the density of the liquid, L is the length of the tube, and r is the radius of the tube. The flow rate Q of the liquid is 0.05 mL/min, and the liquid was perfused for 3 minutes.
FIGS. 19A, 19B and 19C show images obtained by causing a fluid containing Texas Red as a model of a lipophilic drug to flow in three types of tubular-form culture substrates having different diameters, and imaging fluorescence signals from the Texas Red. […]
FIGS. 20A, 20B and 20C show images obtained by causing a fluid containing calcein as a model of a hydrophilic drug to flow in three types of tubular-form culture substrates having different inner diameters, and imaging fluorescence signals from the calcein.

caco-2 cells [2] = experiment: Evaluation Test 2: perfusion of fluorescent dyes through the tubular-form culture substrate, absorption into cultured cells; assay type: in vitro ADME; conditions: HBSS, flow rate 0.05 mL min^-1 for 1 hour; calcein 100 μmol L^-1, Texas Red 10 μmol L^-1
Description: Specifically, caco-2 cells imitating intestinal epithelium were cultured on a culture substrate. Caco-2 cells produced by DS pharma biomedical Co., Ltd. were used. The caco-2 cells were cultured in DMEM (Dulbecco-modified eagle's medium) to which 10% heat inactivated fetal bovine serum, penicillin G (100 U mL^−1), streptomycin (100 μg mL^−1), and 1% non-essential amino acid were added, under an environment at 37° C., 5% CO2), and 95% air. The caco-2 cells were dissociated in EDTA and 0.05% trypsin and passaged, and then the cells were seeded on collagen that forms a culture substrate on an upper surface of a balloon actuator. The caco-2 cells reached confluence in 7 days. The culture medium was replaced every 24 hours. […]
The culture substrate in the tubular form was perfused with HBSS (Hanks' Balanced Salt Solution) containing fluorescent dyes, as a liquid corresponding to a drug solution, at a flow rate of 0.05 mL min^−1 for 1 hour. […] Thereafter, bright field images and fluorescence images of the caco-2 cells at a bottom part and an upper part of the culture substrate in the tubular form were observed.
FIGS. 16A, 16B, 16C, 16D, 16E and 16G show microscope images of the caco-2 cells. […] FIGS. 16C and 16D show images obtained by imaging fluorescence signals from calcein at the bottom part and the upper part of the culture substrate in the tubular form, respectively. […]

Row | Compound | speed of absorption depending on inner diameter of the tubular-form culture substrate (fluorescence images) (caco-2 cells [1]) | absorption in the caco-2 cells (fluorescence images at bottom part and upper part of the tubular culture substrate) (caco-2 cells [2])
1 | O=C(O)CN(CC(=O)O)Cc1cc2c(cc1O)Oc1cc(O)c(CN(CC(=O)O)CC(=O)O)cc1C21OC(=O)c2ccccc21 [calcein] | substantially no difference was observed in the speed of absorbing the hydrophilic drug | uniformly absorbed in the caco-2 cells
2 | Texas Red | the smaller the inner diameter of the tube is, the faster the lipophilic drug is absorbed | uniformly absorbed in the caco-2 cells

Reference: patent US20180282679A1, “CELL CULTURE APPARATUS” (The Ritsumeikan Trust, priority 2015, published 2018)
